In patent US9486506B2 (Novo Nordisk A/S, priority 2011, dated 2016):
Numbered stars: 1 amine (or outer) side, 2 acyl side, 3 side chain; on linkers, the order of the positions; unused ones are H or OH. Side chains are listed from the residue outwards. Peptide text beside a SMILES is read from it. * marks the point of attachment. C16 diacid = O=C(O)CCCCCCCCCCCCCCC(=O)*; γGlu = O=C(O)[C@H](CCC(=O)[*:2])N[*:1]; AEEA = NCCOCCOCC(=O)O

Biological target: T1, glucagon receptor (Homo sapiens, UniProt P47871)
T1 construct: expressed in transfected cells
T1 sequence (P47871 26-477): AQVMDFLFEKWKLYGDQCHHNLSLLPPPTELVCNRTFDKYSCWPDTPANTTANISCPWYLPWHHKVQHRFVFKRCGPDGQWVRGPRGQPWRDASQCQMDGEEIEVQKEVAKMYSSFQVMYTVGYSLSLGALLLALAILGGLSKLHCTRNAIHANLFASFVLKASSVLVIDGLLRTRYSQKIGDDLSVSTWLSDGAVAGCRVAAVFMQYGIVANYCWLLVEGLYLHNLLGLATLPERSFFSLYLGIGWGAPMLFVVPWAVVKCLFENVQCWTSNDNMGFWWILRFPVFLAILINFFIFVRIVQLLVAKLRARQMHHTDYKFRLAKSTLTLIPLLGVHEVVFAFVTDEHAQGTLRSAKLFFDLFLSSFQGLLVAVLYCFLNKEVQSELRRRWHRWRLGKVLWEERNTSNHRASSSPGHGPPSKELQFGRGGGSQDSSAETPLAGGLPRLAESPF
Test: Assay (I) Glucagon activity (cAMP biosensor, FLIPR)
Assay type: cell-based

| Compound | EC50 [nM] |
| --- | --- |
| CC(C)C[C@H](NC(=O)[C@H](CC(=O)O)NC(=O)[C@H](CC(C)C)NC(=O)[C@H](Cc1ccc(O)cc1)NC(=O)[C@H](CCCNC(=N)N)NC(=O)[C@H](CO)NC(=O)[C@H](Cc1ccc(O)cc1)NC(=O)[C@H](CC(=O)O)NC(=O)[C@H](CO)NC(=O)[C@@H](NC(=O)[C@H](Cc1ccccc1)NC(=O)[C@@H](NC(=O)CNC(=O)[C@H](CCC(N)=O)NC(=O)[C@H](CO)NC(=O)[C@@H](N)Cc1c[nH]cn1)[C@@H](C)O)[C@@H](C)O)C(=O)N[C@@H](CCCNC(=N)N)C(=O)N[C@@H](CCCNC(=N)N)C(=O)N[C@@H](C)C(=O)N[C@@H](CCC(N)=O)C(=O)N[C@@H](CC(=O)O)C(=O)N[C@@H](Cc1ccccc1)C(=O)N[C@H](C(=O)N[C@@H](CCCCNC(=O)CC[C@H](NC(=O)CC[C@H](NC(=O)CC[C@H](NC(=O)CC[C@H](NC(=O)CCCCCCCCCCCCCCC(=O)O)C(=O)O)C(=O)O)C(=O)O)C(=O)O)C(=O)N[C@@H](Cc1c[nH]c2ccccc12)C(=O)N[C@@H](CC(C)C)C(=O)N[C@@H](CC(C)C)C(=O)N[C@@H](CO)C(=O)N[C@H](C(=O)O)[C@@H](C)O)C(C)C [Example 74, N^ε24-[(4S)-4-carboxy-4-[[(4S)-4-carboxy-4-[[(4S)-4-carboxy-4-[[(4S)-4-carboxy-4-(15-carboxypentadecanoylamino)butanoyl]amino]butanoyl]amino]butanoyl]amino]butanoyl]-[Arg12,Leu16,Lys24,Leu27,Ser28]-Glucagon] (H-HSQGTFTSDYSRYLDLRRAQDFVK([γGlu-γGlu-γGlu-γGlu-C16 diacid])WLLST-OH) | 0.109 |
| CC(C)C[C@H](NC(=O)[C@H](Cc1c[nH]c2ccccc12)NC(=O)[C@H](CCCCNC(=O)CC[C@H](NC(=O)CC[C@H](NC(=O)COCCOCCNC(=O)COCCOCCNC(=O)CC[C@H](NC(=O)CCCCCCCCCCCCCCC(=O)O)C(=O)O)C(=O)O)C(=O)O)NC(=O)[C@@H](NC(=O)[C@H](Cc1ccccc1)NC(=O)[C@H](CC(=O)O)NC(=O)[C@H](CCC(N)=O)NC(=O)[C@H](C)NC(=O)[C@H](CCCNC(=N)N)NC(=O)[C@H](CCCNC(=N)N)NC(=O)[C@@H](NC(=O)[C@H](CC(=O)O)NC(=O)[C@H](CC(C)C)NC(=O)[C@H](Cc1ccc(O)cc1)NC(=O)[C@H](CCCCN)NC(=O)[C@H](CO)NC(=O)[C@H](Cc1ccc(O)cc1)NC(=O)[C@H](CC(=O)O)NC(=O)[C@H](CO)NC(=O)[C@@H](NC(=O)[C@H](Cc1ccccc1)NC(=O)[C@@H](NC(=O)CNC(=O)[C@H](CCC(N)=O)NC(=O)[C@H](CO)NC(=O)[C@@H](N)Cc1c[nH]cn1)[C@@H](C)O)[C@@H](C)O)[C@@H](C)O)C(C)C)C(=O)N[C@@H](CC(C)C)C(=O)N[C@@H](CO)C(=O)N[C@H](C(=O)O)[C@@H](C)O [Example 81, N^ε24-[(4S)-4-carboxy-4-[[(4S)-4-carboxy-4-[[2-[2-[2-[[2-[2-[2-[[(4S)-4-carboxy-4-(15-carboxypentadecanoylamino)butanoyl]amino]ethoxy]ethoxy]acetyl]amino]ethoxy]ethoxy]acetyl]amino]butanoyl]amino]butanoyl]-[Thr16,Lys24,Leu27,Ser28]-Glucagon] | 0.017 |
| CC(C)C[C@H](NC(=O)[C@H](Cc1c[nH]c2ccccc12)NC(=O)[C@H](CCCCNC(=O)CC[C@H](NC(=O)CC[C@H](NC(=O)COCCOCCNC(=O)COCCOCCNC(=O)CC[C@H](NC(=O)CCCCCCCCCCCCCCC(=O)O)C(=O)O)C(=O)O)C(=O)O)NC(=O)[C@@H](NC(=O)[C@H](Cc1ccccc1)NC(=O)[C@H](CC(=O)O)NC(=O)[C@H](CCC(N)=O)NC(=O)[C@H](C)NC(=O)[C@H](CCCNC(=N)N)NC(=O)[C@H](CCCNC(=N)N)NC(=O)[C@@H](NC(=O)[C@H](CC(=O)O)NC(=O)[C@H](CC(C)C)NC(=O)[C@H](Cc1ccc(O)cc1)NC(=O)[C@H](CCCNC(=N)N)NC(=O)[C@H](CO)NC(=O)[C@H](Cc1ccc(O)cc1)NC(=O)[C@H](CC(=O)O)NC(=O)[C@H](CO)NC(=O)[C@@H](NC(=O)[C@H](Cc1ccccc1)NC(=O)[C@@H](NC(=O)CNC(=O)[C@H](CCC(N)=O)NC(=O)[C@H](CO)NC(=O)[C@@H](N)Cc1c[nH]cn1)[C@@H](C)O)[C@@H](C)O)[C@@H](C)O)C(C)C)C(=O)N[C@@H](CC(C)C)C(=O)N[C@@H](CO)C(=O)N[C@H](C(=O)O)[C@@H](C)O [Example 82, N^ε24-[(4S)-4-carboxy-4-[[(4S)-4-carboxy-4-[[2-[2-[2-[[2-[2-[2-[[(4S)-4-carboxy-4-(15-carboxypentadecanoylamino)butanoyl]amino]ethoxy]ethoxy]acetyl]amino]ethoxy]ethoxy]acetyl]amino]butanoyl]amino]butanoyl]-[Arg12,Thr16,Lys24,Leu27,Ser28]-Glucagon] (H-HSQGTFTSDYSRYLDTRRAQDFVK([γGlu-γGlu-AEEA-AEEA-γGlu-C16 diacid])WLLST-OH) | 0.025 |
| CC(C)C[C@H](NC(=O)[C@H](CC(=O)O)NC(=O)[C@H](CC(C)C)NC(=O)[C@H](Cc1ccc(O)cc1)NC(=O)[C@H](CCCNC(=N)N)NC(=O)[C@H](CO)NC(=O)[C@H](Cc1ccc(O)cc1)NC(=O)[C@H](CC(=O)O)NC(=O)[C@H](CO)NC(=O)[C@@H](NC(=O)[C@H](Cc1ccccc1)NC(=O)[C@@H](NC(=O)CNC(=O)[C@H](CCC(N)=O)NC(=O)[C@H](CO)NC(=O)[C@@H](N)Cc1c[nH]cn1)[C@@H](C)O)[C@@H](C)O)C(=O)N[C@@H](CCCNC(=N)N)C(=O)N[C@@H](CCCNC(=N)N)C(=O)N[C@@H](C)C(=O)N[C@@H](CCC(N)=O)C(=O)N[C@@H](CC(=O)O)C(=O)N[C@@H](Cc1ccccc1)C(=O)N[C@H](C(=O)N[C@@H](CCCCNC(=O)CC[C@H](NC(=O)CC[C@H](NC(=O)CC[C@H](NC(=O)CCCCCCCCCCCCCCC(=O)O)C(=O)O)C(=O)O)C(=O)O)C(=O)N[C@@H](Cc1c[nH]c2ccccc12)C(=O)N[C@@H](CC(C)C)C(=O)N[C@@H](CC(C)C)C(=O)N[C@@H](CO)C(=O)N[C@H](C(=O)O)[C@@H](C)O)C(C)C [Example 91, N^ε24-[(4S)-4-carboxy-4-[[(4S)-4-carboxy-4-[[(4S)-4-carboxy-4-(15-carboxypentadecanoylamino)butanoyl]amino]butanoyl]amino]butanoyl]-[Arg12,Leu16,Lys24,Leu27,Ser28]-Glucagon] (H-HSQGTFTSDYSRYLDLRRAQDFVK([γGlu-γGlu-γGlu-C16 diacid])WLLST-OH) | 0.027 |
| CC(C)C[C@H](NC(=O)[C@H](Cc1c[nH]c2ccccc12)NC(=O)[C@H](CCCCNC(=O)CC[C@H](NC(=O)CC[C@H](NC(=O)COCCOCCNC(=O)COCCOCCNC(=O)CC[C@H](NC(=O)CCCCCCCCCCCCCCC(=O)O)C(=O)O)C(=O)O)C(=O)O)NC(=O)[C@@H](NC(=O)[C@H](Cc1ccccc1)NC(=O)[C@H](CC(=O)O)NC(=O)[C@H](CCC(N)=O)NC(=O)[C@H](C)NC(=O)[C@H](CCCNC(=N)N)NC(=O)[C@H](CCCNC(=N)N)NC(=O)[C@@H](NC(=O)[C@H](CC(=O)O)NC(=O)[C@H](CC(C)C)NC(=O)[C@H](Cc1ccc(O)cc1)NC(=O)[C@H](CCCNC(=N)N)NC(=O)[C@H](CO)NC(=O)[C@H](Cc1ccc(O)cc1)NC(=O)[C@H](CC(=O)O)NC(=O)[C@H](CO)NC(=O)[C@@H](NC(=O)[C@H](Cc1ccccc1)NC(=O)[C@@H](NC(=O)CNC(=O)[C@H](CCC(N)=O)NC(=O)[C@H](CO)NC(=O)[C@@H](N)Cc1c[nH]cn1)[C@@H](C)O)[C@@H](C)O)C(C)C)C(C)C)C(=O)N[C@@H](CC(C)C)C(=O)N[C@@H](CO)C(=O)N[C@H](C(=O)O)[C@@H](C)O [Example 97, N^ε24-[(4S)-4-carboxy-4-[[(4S)-4-carboxy-4-[[2-[2-[2-[[2-[2-[2-[[(4S)-4-carboxy-4-(15-carboxypentadecanoylamino)butanoyl]amino]ethoxy]ethoxy]acetyl]amino]ethoxy]ethoxy]acetyl]amino]butanoyl]amino]butanoyl]-[Arg12,Val16,Lys24,Leu27,Ser28]-Glucagon] (H-HSQGTFTSDYSRYLDVRRAQDFVK([γGlu-γGlu-AEEA-AEEA-γGlu-C16 diacid])WLLST-OH; N-terminus and C-terminus assumed) | 0.026 |
